Test results taken from PubChem BioAssay AID1919001 (Molecular Pharmacology Branch, DTP, NCI, 2023).
Where “and” joins values, the source holds several entries; their conditions need not be identical. Equal entries are not always repeated.

Test system: 699152-130-R-J1-PDC complex spheroid growth
Experiment: Anticancer human tumor 699152-130-R-J1-PDC patient-derived pancreatic carcinoma cell line growth inhibition [AhR]
Details: for viability, T/C: stronger effect = lower value
Outline: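 Agents were dosed in half-log steps down from roughly clinical Cmax, or from 10 microM where Cmax was unknown, alone and with AhR antagonists. Read-out: percent test/control growth of tumor spheroids containing HUVEC and MSC stromal cells.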

[1] = curve of first compound, second compound 0.1 µM
[2] = curve of first compound, second compound 0.316 µM
[3] = curve of first compound, second compound 1 µM
[4] = curve of first compound, second compound 3.16 µM
[5] = curve of first compound, second compound 10 µM
[6] = second compound 0.1 µM, first compound 0.0316 µM
[7] = second compound 0.1 µM, first compound 0.1 µM
[8] = second compound 0.1 µM, first compound 0.316 µM
[9] = second compound 0.1 µM, first compound 1 µM
[10] = second compound 0.1 µM, first compound 3.16 µM
[11] = second compound 0.1 µM, first compound 10 µM
[12] = second compound 0.316 µM, first compound 0.0316 µM
[13] = second compound 0.316 µM, first compound 0.1 µM
[14] = second compound 0.316 µM, first compound 0.316 µM
[15] = second compound 0.316 µM, first compound 1 µM
[16] = second compound 0.316 µM, first compound 3.16 µM
[17] = second compound 0.316 µM, first compound 10 µM
[18] = second compound 1 µM, first compound 0.0316 µM
[19] = second compound 1 µM, first compound 0.1 µM
[20] = second compound 1 µM, first compound 0.316 µM
[21] = second compound 1 µM, first compound 1 µM
[22] = second compound 1 µM, first compound 3.16 µM
[23] = second compound 1 µM, first compound 10 µM
[24] = second compound 3.16 µM, first compound 0.0316 µM
[25] = second compound 3.16 µM, first compound 0.1 µM
[26] = second compound 3.16 µM, first compound 0.316 µM
[27] = second compound 3.16 µM, first compound 1 µM
[28] = second compound 3.16 µM, first compound 3.16 µM
[29] = second compound 3.16 µM, first compound 10 µM
[30] = second compound 10 µM, first compound 0.0316 µM
[31] = second compound 10 µM, first compound 0.1 µM
[32] = second compound 10 µM, first compound 0.316 µM
[33] = second compound 10 µM, first compound 1 µM
[34] = second compound 10 µM, first compound 3.16 µM
[35] = second compound 10 µM, first compound 10 µM
[36] = second compound 0.1 µM, first compound 0.00316 µM
[37] = second compound 0.1 µM, first compound 0.01 µM
[38] = second compound 0.316 µM, first compound 0.00316 µM
[39] = second compound 0.316 µM, first compound 0.01 µM
[40] = second compound 1 µM, first compound 0.00316 µM
[41] = second compound 1 µM, first compound 0.01 µM
[42] = second compound 3.16 µM, first compound 0.00316 µM
[43] = second compound 3.16 µM, first compound 0.01 µM
[44] = second compound 10 µM, first compound 0.00316 µM
[45] = second compound 10 µM, first compound 0.01 µM
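Also: compound exposure lasted 7 days after spheroids had grown for 3 days.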

SMILES	IC50 [1]	IC50 [2]	IC50 [3]	IC50 [4]	IC50 [5]	viability, T/C [6]	viability, T/C [7]	viability, T/C [8]	viability, T/C [9]	viability, T/C [12]	viability, T/C [13]	viability, T/C [14]	viability, T/C [15]	viability, T/C [18]	viability, T/C [19]	viability, T/C [20]	viability, T/C [24]	viability, T/C [25]	viability, T/C [30]	viability, T/C [31]	further results
CC1COCCN1c1cc(C2(S(C)(=N)=O)CC2)nc(-c2ccnc3[nH]ccc23)n1 (stereo not given) + Cc1cncc(-c2nc(NCCc3c[nH]c4ccccc34)c3ncn(C(C)C)c3n2)c1	> 10 µM	> 10 µM	> 10 µM	> 10 µM	< 0.0316 µM	98.9%	103%	113%	95.9%	96.5%	106%	114%	119%	117%	122%	126%	90.6%	113%	25.2%	27.3%	viability, T/C [10]: 85.3%; viability, T/C [11]: 74.8%; viability, T/C [16]: 95.1%; viability, T/C [17]: 77.8%; viability, T/C [21]: 107%; viability, T/C [22]: 123%; viability, T/C [23]: 81.3%; viability, T/C [26]: 90.9%; viability, T/C [27]: 101%; viability, T/C [28]: 92.3%; viability, T/C [29]: 69.9%; viability, T/C [32]: 29.9%; viability, T/C [33]: 24.7%; viability, T/C [34]: 25.9%; viability, T/C [35]: 20.2%
CCc1c2c(nc3ccc(O)cc13)-c1cc3c(c(=O)n1C2)COC(=O)[C@]3(O)CC																					viability, T/C (compound 0.000949 µM): 85.1% and 90.1% and 88.5%; viability, T/C (compound 0.003 µM): 86.8% and 87.7% and 95.1%; viability, T/C (compound 0.00949 µM): 66.3% and 61.5% and 59.9%; viability, T/C (compound 0.03 µM): 55.8% and 44.3% and 57.9%; viability, T/C (compound 0.0949 µM): 49% and 43.6% and 52%; viability, T/C (compound 0.3 µM): 33.9% and 33.8% and 38%; IC50 (curve of compound): 0.0604 µM and 0.02 µM and 0.0277 µM
Cn1ncnc1C1c2n[nH]c(=O)c3cc(F)cc(c23)NC1c1ccc(F)cc1 (stereo not given) + Cc1ccccc1N=Nc1ccc(NC(=O)c2ccnn2C)c(C)c1	> 0.1 µM	> 0.1 µM	> 0.1 µM	> 0.1 µM	> 0.1 µM	99.2%	100%			92.4%	80.1%			95.5%	83.2%		90.5%	99%	108%	105%	viability, T/C (second compound 0.1 µM, first compound 0.000316 µM): 83.7%; viability, T/C (second compound 0.1 µM, first compound 0.001 µM): 101%; viability, T/C [36]: 101%; viability, T/C [37]: 87%; viability, T/C (second compound 0.316 µM, first compound 0.000316 µM): 102%; viability, T/C (second compound 0.316 µM, first compound 0.001 µM): 96.5%; viability, T/C [38]: 97.8%; viability, T/C [39]: 88.8%; viability, T/C (second compound 1 µM, first compound 0.000316 µM): 107%; viability, T/C (second compound 1 µM, first compound 0.001 µM): 87%; viability, T/C [40]: 94%; viability, T/C [41]: 98.4%; viability, T/C (second compound 3.16 µM, first compound 0.000316 µM): 97.5%; viability, T/C (second compound 3.16 µM, first compound 0.001 µM): 117%; viability, T/C [42]: 112%; viability, T/C [43]: 100%; viability, T/C (second compound 10 µM, first compound 0.000316 µM): 113%; viability, T/C (second compound 10 µM, first compound 0.001 µM): 112%; viability, T/C [44]: 118%; viability, T/C [45]: 122%
Cc1ccccc1N=Nc1ccc(NC(=O)c2ccnn2C)c(C)c1																					IC50 (compound alone, run of 07/26/2022): > 10 µM
NS(=O)(=O)OCC1CC(n2ccc3c(NC4CCc5ccccc54)ncnc32)CC1O (stereo not given) + Cc1ccccc1N=Nc1ccc(NC(=O)c2ccnn2C)c(C)c1	0.807 µM	0.724 µM	0.739 µM	0.694 µM	0.542 µM	98.3%	107%	107%	37.5%	102%	103%	104%	29.4%	105%	116%	105%	115%	115%	122%	125%	viability, T/C [10]: 21.6%; viability, T/C [11]: 25.2%; viability, T/C [16]: 18.5%; viability, T/C [17]: 20.1%; viability, T/C [21]: 30.3%; viability, T/C [22]: 20.2%; viability, T/C [23]: 27.1%; viability, T/C [26]: 96.7%; viability, T/C [27]: 28.4%; viability, T/C [28]: 20.8%; viability, T/C [29]: 24.9%; viability, T/C [32]: 67.3%; viability, T/C [33]: 32.9%; viability, T/C [34]: 27.2%; viability, T/C [35]: 30.8%
CC(C)c1c(-c2ccccc2)nc2c(C#N)c[nH]n2c1=O																					viability, T/C (compound 0.0316 µM): 108% and 92.1% and 105%; viability, T/C (compound 0.1 µM): 102% (2×) and 87.1%; viability, T/C (compound 0.316 µM): 109% and 90% and 107%; viability, T/C (compound 1 µM): 97.5% and 90.3% and 96%; viability, T/C (compound 3.16 µM): 112% and 104% and 99.7%; viability, T/C (compound 10 µM): 107% and 88.4% and 99.3%; IC50 (curve of compound): > 10 µM
Nc1ncn(C2CC(O)C(CO)O2)c(=O)n1 (stereo not given) + Cc1cncc(-c2nc(NCCc3c[nH]c4ccccc34)c3ncn(C(C)C)c3n2)c1	> 1 µM	> 1 µM	> 1 µM	> 1 µM	< 0.00316 µM	90.4%	98.4%	85.4%	87.8%	104%	86.5%	96.3%	97.2%	99.6%	97.9%	110%	111%	100%	0.78%	0.82%	viability, T/C [36]: 109%; viability, T/C [37]: 88%; viability, T/C [38]: 99.3%; viability, T/C [39]: 90.8%; viability, T/C [40]: 106%; viability, T/C [41]: 115%; viability, T/C [21]: 92.2%; viability, T/C [42]: 95%; viability, T/C [43]: 87.1%; viability, T/C [26]: 97.6%; viability, T/C [27]: 93.9%; viability, T/C [44]: 0.96%; viability, T/C [45]: 2.37%; viability, T/C [32]: 1.11%; viability, T/C [33]: 5.98%
Nc1ncn(C2CC(O)C(CO)O2)c(=O)n1 (stereo not given) + Cc1ccccc1N=Nc1ccc(NC(=O)c2ccnn2C)c(C)c1	> 1 µM	> 1 µM	> 1 µM	> 1 µM	> 1 µM	93.7%	86.6%	81.9%	78.7%	99.7%	90.5%	85.6%	80.6%	87.9%	91.2%	88.7%	86.8%	77.2%	75.3%	83.9%	viability, T/C [36]: 98.3%; viability, T/C [37]: 98.6%; viability, T/C [38]: 95.3%; viability, T/C [39]: 91.7%; viability, T/C [40]: 93.9%; viability, T/C [41]: 95.6%; viability, T/C [21]: 88.5%; viability, T/C [42]: 104%; viability, T/C [43]: 102%; viability, T/C [26]: 104%; viability, T/C [27]: 86.4%; viability, T/C [44]: 117%; viability, T/C [45]: 103%; viability, T/C [32]: 86.5%; viability, T/C [33]: 85.6%
